Results as given in ChEMBL document CHEMBL4619763 (J Nat Prod, 2020).
Calls of active or inactive are those of the source. The calls are words filed in the database; no cut-off is given here.

Key:
Rattus norvegicus [1] = experiment: Diuretic activity in normotensive Wistar rat assessed as urine pH at 0.1 mg/kg, po administered via gavage after 8 hrs in presence of furosemide (reference value: 6.14 to 6.21); format: functional
Rattus norvegicus [2] = experiment: Diuretic activity in normotensive Wistar rat assessed as urine pH at 0.1 mg/kg, po administered via gavage after 8 hrs in presence of L-NAME (reference value: 6.14 to 6.21); format: functional
Rattus norvegicus [3] = experiment: Diuretic activity in normotensive Wistar rat assessed as urinary potassium excretion at 0.1 mg/kg, po administered via gavage after 8 hrs in presence of furosemide (reference value: 22.39 to 24.21 mmol/L); format: ADME, organism-based; settings: in vivo
Rattus norvegicus [4] = experiment: Diuretic activity in normotensive Wistar rat assessed as urinary potassium excretion at 0.1 mg/kg, po administered via gavage after 8 hrs in presence of indomethacin (reference value: 22.39 to 24.21 mmol/L); format: ADME, organism-based; settings: in vivo
Rattus norvegicus [5] = experiment: Diuretic activity in normotensive Wistar rat assessed as urinary chloride excretion at 0.1 mg/kg, po administered via gavage after 8 hrs in presence of amiloride (reference value: 135.10 to 143.70 mmol/L); format: functional
Rattus norvegicus [6] = experiment: Diuretic activity in normotensive Wistar rat assessed as urinary calcium excretion at 0.1 mg/kg, po administered via gavage after 8 hrs in presence of L-NAME (reference value: 5.93 to 6.87 mg/dl); format: functional
Rattus norvegicus [7] = experiment: Renal protective activity in spontaneous hypertensive Wistar rat assessed as reduction in hypertension-induced Bowman's capsule thickening at 0.1 mg/kg, po administered via gavage for 7 days by hematoxylin and eosin staining based microscopic analysis; format: functional, organism-based
Rattus norvegicus [8] = experiment: Renal protective activity in spontaneous hypertensive Wistar rat assessed as reduction in hypertension-induced mesangial space disarrangement at 0.1 mg/kg, po administered via gavage for 7 days by hematoxylin and eosin staining based microscopic analysis; format: functional, organism-based

Activity (Rattus norvegicus [3]): 20.41 mmol/L | Activity (Rattus norvegicus [4]): 17.87 mmol/L
SMILES: C[C@@H]1O[C@@H](Oc2c(-c3ccc(O)cc3)oc3cc(O)cc(O)c3c2=O)[C@H](O)[C@H](O)[C@H]1O [AFZELIN]
pH (Rattus norvegicus [1]): 6.25 | pH (Rattus norvegicus [2]): 6.43 | Activity (Rattus norvegicus [5]): 161.1 mmol/L | Activity (Rattus norvegicus [6]): 4.82 mg/dL | Activity (Rattus norvegicus [7]): Active | Activity (Rattus norvegicus [8]): Active
